Measured values published in PMC6272176, “Antileishmanial and Cytotoxic Compounds from Valeriana wallichii and Identification of a Novel Nepetolactone Derivative” (Molecules, 2015).
Where two headings read alike, the source gives them in different places.

How the values were obtained:
L. major promastigotes = experiment: Antileishmanial activity against L. major promastigotes, AlamarBlue assay; type: cell-based, Leishmania major; conditions: for antileishmanial activity (in words): verbal rating; for IC50: Leishmania major, read-out: IC50 (L. major)
Experimental: (§1) All compounds isolated were subjected to the evaluation of their antileishmanial activity against L. major promastigotes in vitro and cytotoxicity against macrophages (J774.1 murine cell line) using the corresponding AlamarBlue^© assays (cf. Table 2).
(§2) Antileishmanial activity against L. major promastigotes and cytotoxicity against a murine macrophage cell line (J774.1) was determined using an AlamarBlue^© assay. Methods for both procedures have been reported previously. IC50 values are presented as mean values of two experiments.

[1] = tested on: J774.1 murine macrophage cell line; experiment: Cytotoxicity against macrophages (J774.1), AlamarBlue assay; type: cell-based; conditions: for IC50: Mus musculus; for cytotoxicity (in words): verbal rating
Experimental: as §1, §2

[2] = L. major promastigotes in vitro
[3] = L. major promastigotes in vitro, values marked *: pure or synthesized compounds, given in µM, mean of two experiments
[4] = J774.1 macrophages, values marked *: pure or synthesized compounds, given in µM, mean of two experiments, read-out: IC50 (J774.1)
[5] = L. major promastigotes in vitro, fractions containing isolated compounds, mean of two experiments
[6] = J774.1 macrophages, fractions containing isolated compounds, mean of two experiments, read-out: IC50 (J774.1)
[7] = J774.1 macrophages, fractions containing isolated compounds, mean of two experiments

Molecule	IC50 (L. major promastigotes; [5])	antileishmanial activity (in words) (L. major promastigotes; [2])	IC50 [1, 6]	further results
CC1(C)C2CCC1(C)C(OC(=O)C=Cc1ccc(O)c(O)c1)C2 (stereo not drawn) [Bornyl caffeate (1), bornyl caffeate]	–	moderate antileishmanial activity	–	IC50 (L. major promastigotes; [3]): 48.8 µM; IC50 [1, 4]: 8.3 µM
CC(C)CC(=O)OC1CC2CCC1(C)C2(C)C (stereo not drawn) [Bornyl isovalerate (13), bornyl isovalerate]	–	no antileishmanial activity	–	IC50 (L. major promastigotes; [3]): > 100 µM; IC50 [1, 4]: > 100 µM
CCCCCCCCCCCCCCCCOP(=O)([O-])OCC[N+](C)(C)C [Miltefosine, reference compound]	–	–	–	IC50 [1, 4]: 56.5 µM
CC(C)C1CCC2(C)CCCC(=O)C2(C)C1 (stereo not drawn) [Valeranone (12), valeranone]	60.8 mg/L	moderate	42.6 mg/L	cytotoxicity (in words) ([1]; J774.1 macrophages): moderate
CCC(C)CC(=O)OC1OC=C(COC(=O)CC(C)C)C2CC(OC(C)=O)C(O)(COC(=O)C(OC(=O)CC(C)C)C(C)C)C12 (stereo not drawn) [compound 6]	1.9 mg/L	–	< 0.8 mg/L	–
CC(=O)OC1CC2C(COC(=O)CC(C)C)=COC(OC(=O)CC(C)C)C2C1(O)COC(=O)CC(C)C (stereo not drawn) [compound 7]	0.8 mg/L	–	< 0.8 mg/L	–
CC(=O)OCC1=COC(OC(=O)CC(C)C)C2C1=CC(OC(=O)CC(C)C)C2(O)COC(=O)CC(C)C (stereo not drawn) [compound 8]	–	–	–	IC50 (L. major promastigotes; [3]): 1.7 µM; IC50 [1, 4]: 1 µM
CC(=O)OC1CC2C(COC(=O)CC(C)C)=COC(OC(=O)CC(C)C)C2C1(O)CCl (stereo not drawn) [compound 9, valechlorine]	2.3 mg/L	–	1.9 mg/L	–
COc1cc(C2c3cc4c(cc3C(O)C3COC(=O)C23)OCO4)cc(OC)c1O (stereo not drawn) [compound 15, 4'-demethylpodophyllotoxin]	–	no antileishmanial activity	–	IC50 (L. major) (L. major promastigotes; [5]): >100 mg/L; IC50 (J774.1) [1, 7]: <0.8 mg/L
COc1cc([C@@H]2c3cc4c(cc3[C@H](O)[C@H]3COC(=O)[C@H]23)OCO4)cc(OC)c1OC [compound 16, podophyllotoxin]	–	no antileishmanial activity	–	IC50 (L. major promastigotes): > 100 mg/L; IC50 ([1]; J774.1, read-out: IC50 (J774.1)): < 0.8 mg/L
CC(C)=CCCC(C)C1(O)CC=C(C)CC1 (stereo not drawn) [β-Bisabolol (10), β-bisabolol]	52.2 mg/L	moderate	37.1 mg/L	cytotoxicity (in words) ([1]; J774.1 macrophages): moderate
pinoresinol [Pinoresinol (17)]	–	no antileishmanial activity	–	IC50 (L. major) (L. major promastigotes; [5]): >100 mg/L; IC50 (J774.1) [1, 7]: <0.8 mg/L

More lines, main results first:

IC50 (L. major promastigotes; [5])	Molecule	antileishmanial activity (in words) (L. major promastigotes; [2])	IC50 [1, 6]	further results
16.7 mg/L	COc1ccc(C=CC(=O)OC2CC3CCC2(C)C3(C)C)cc1O (stereo not drawn) [compound 2, bornyl isoferulate]	moderate antileishmanial activity	34.7 mg/L	–
> 100 mg/L	CC1CCC2(OC3OC(CO)C(O)C(O)C3O)C1C(=O)OC2(C)COC(=O)C=Cc1ccc(O)cc1 [compound 4, {[(3S,4S,7R,8S)-1-Oxo-3,7-dimethyl-4-(O-β-D-glucopyranosyl)oxy]hexahydrocyclopenta[c]furan-3-yl}-methyl-trans-4-hydroxycinnamate]	–	> 100 mg/L	–
> 100 mg/L	C[C@@H]1CC[C@H]2[C@H](CO)COC(=O)[C@H]21 [compound 5, (4R,5S,8R,9S)-4-(Hydroxymethyl)-8-methylhexahydro-cyclopenta[c]pyranone]	–	17.5 mg/L	–
5.8 mg/L	CC1CC(O)C2C1CC1CCC2(C)OC1(C)C (stereo not drawn) [α-Kessyl alcohol (11), α-kessyl alcohol]	rather good antileishmanial activity	1.7 mg/L	–
